BindingDB's records for doi:10.7270/Q2D798VP (Broad Institute, 2009)

Target: T1, Zinc finger protein mex-5 (Caenorhabditis elegans, UniProt Q9XUB2)
T1 sequence (Q9XUB2 whole entry): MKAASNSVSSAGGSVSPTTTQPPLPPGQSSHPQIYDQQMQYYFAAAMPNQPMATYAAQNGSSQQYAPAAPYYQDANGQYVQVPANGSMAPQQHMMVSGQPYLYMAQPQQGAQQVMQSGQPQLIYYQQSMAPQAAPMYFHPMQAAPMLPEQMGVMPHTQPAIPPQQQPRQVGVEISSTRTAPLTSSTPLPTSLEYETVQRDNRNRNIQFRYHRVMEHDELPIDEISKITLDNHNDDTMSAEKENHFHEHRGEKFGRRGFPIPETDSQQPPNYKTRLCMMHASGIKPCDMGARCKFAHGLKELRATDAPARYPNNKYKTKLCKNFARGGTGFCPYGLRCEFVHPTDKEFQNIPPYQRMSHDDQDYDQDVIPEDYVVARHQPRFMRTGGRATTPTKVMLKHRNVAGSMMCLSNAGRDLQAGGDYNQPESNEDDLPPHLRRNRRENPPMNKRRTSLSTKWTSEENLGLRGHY
Assay: MEX-5/TCR-2 RNA interaction inhibitors, dose response, biochemical, C. elegans, fluorescence polarization (AID 1960)

Row | SMILES | EC50 [µM]
1 | CN1CCC2=C(C#N)C(=N)C(C#N)(C#N)[C@H](c3cccc(Cl)c3)C2C1 (stereo partly drawn) [(8S)-6-amino-8-(3-chlorophenyl)-2-methyl-1,3,8,8a-tetrahydroisoquinoline-5,7,7-tricarbonitrile] | 11.6
2 | CC(C)(C)OC(=O)N1CCC2=C(C#N)C(=N)C(C#N)(C#N)[C@H](c3cccnc3)[C@H]2C1 [(8S,8aR)-6-amino-5,7,7-tricyano-8-(3-pyridinyl)-1,3,8,8a-tetrahydroisoquinoline-2-carboxylic acid tert-butyl ester] | 54
3 | C[C@@H]1O[C@@H](O[C@@H]2[C@@H](O)[C@H](OCCc3ccc(O)c(O)c3)O[C@H](CO)[C@H]2OC(=O)/C=C/c2ccc(O)c(O)c2)[C@H](O)[C@H](O)[C@H]1O [((2R,3R,4R,5R,6R)-6-(3,4-dihydroxyphenethoxy)-5-hydroxy-2-(hydroxymethyl)-4-((2S,3R,4R,5R,6S)-3,4,5-trihydroxy-6-methyltetrahydro-2H-pyran-2-yloxy)tetrahydro-2H-pyran-3-yl) 3-(3,4-dihydroxyphenyl)acrylate] | 9.83
4 | COc1ccc(C(=O)CC=Nc2ccc([N+](=O)[O-])cc2C)c(OC)c1 [(E)-1-(2,4-dimethoxyphenyl)-3-(2-methyl-4-nitro-anilino)prop-2-en-1-one] | > 300
5 | COc1ccc(C(=O)CC=Nc2ccc([N+](=O)[O-])cc2C)cc1OC [(E)-1-(3,4-dimethoxyphenyl)-3-(2-methyl-4-nitro-anilino)prop-2-en-1-one] | 150
6 | O=C(CC=Nc1ccc([N+](=O)[O-])cc1)c1ccc(Br)cc1 [(E)-1-(4-bromophenyl)-3-(4-nitroanilino)-2-propen-1-one] | > 300
7 | Cc1ccc(N=CCC(=O)c2sc(-c3ccccc3)nc2C)cc1 [(E)-1-(4-methyl-2-phenyl-1,3-thiazol-5-yl)-3-(4-toluidino)-2-propen-1-one] | > 300
8 | Cc1nnc(SC(=Cc2ccc(-c3ccc(Cl)cc3)o2)C(=O)O)[nH]1 [(E)-3-[5-(4-chlorophenyl)furan-2-yl]-2-[(5-methyl-1H-1,2,4-triazol-3-yl)sulfanyl]prop-2-enoic acid] | 29.6
9 | CC(=N)C(C#N)C(=O)CSc1ncnc2ccccc12 (stereo unspecified) [(E)-3-amino-2-(2-quinazolin-4-ylsulfanylacetyl)but-2-enenitrile] | 8.02
10 | O=CC(C=Nc1ccccn1)c1nc2cc(Cl)ccc2o1 (stereo unspecified) [(Z)-2-(5-chloranyl-1,3-benzoxazol-2-yl)-3-(pyridin-2-ylamino)prop-2-enal] | 36.4
11 | CCCCN1C(=O)NC(=O)C(=CNNC(=O)c2ccncc2)C1=O [Isonicotinic acid N'-[1-butyl-2,4,6-trioxo-tetrahydro-pyrimidin-(5E)-ylidenemethyl]-hydrazide] | > 300
12 | COc1cc(C2C3CN(C)CCC3=C(C#N)C(=N)C2(C#N)C#N)ccc1OC(C)C (stereo unspecified) [MLS000034945] | 31.3
13 | CC(=O)Nc1ccc(N=CCC(=O)c2ccc(C)o2)cc1 [MLS000089004] | > 300
14 | CC(=O)N=c1c(C#N)cc2c(=O)n3cccc(C)c3nc2n1CCCOC(C)C [MLS000332846] | 229
15 | COc1ccc(CCN2C(=O)NC(=O)C(=CNc3ccc(NC(C)=O)cc3)C2=O)cc1OC [MLS000332913] | > 300
16 | O=C1CCCC2=Nc3cc(Cl)ccc3SC12 (stereo unspecified) [MLS000333002] | 8.9
17 | CCCCCCN1C(=O)C(=CNc2ccccc2N2CCOCC2)C(=O)NC1=S [MLS000333666] | > 300
18 | Cc1ccc(CN=Nc2ncnc3nc[nH]c23)cc1 [MLS000419179] | > 300
19 | CCOc1ccc(N=C(C(=C(Cl)C(Cl)Cl)[N+](=O)[O-])n2cncn2)cc1 [MLS000519210] | 45.4
20 | COc1cc(CN=Nc2ccc([N+](=O)[O-])cc2)ccc1OCC(=O)Nc1ccc(C)c(C)c1 [MLS000537060] | 234
21 | Cc1cc(C)cc(N2C(=O)NC(=O)C(=Cc3cccn3-c3ccc(Cl)cc3)C2=O)c1 [MLS000545741] | 136

Row | SMILES | EC50 [µM]
22 | [H]/N=C1/OC23CCCCC2C(C#N)(C#N)C1(C#N)C(c1ccc(OC)cc1)O3 (stereo unspecified) [MLS000554241] | 11.2
23 | Nc1c(-c2nc3ccccc3[nH]2)c(O)cn1-c1ccc(CC(=O)O)cc1 [MLS000565528] | 1.59
24 | Cc1nnc(=O)[nH]c1N=NCC1C=CC(=O)C([N+](=O)[O-])=C1 (stereo unspecified) [MLS000585487] | 65.5
25 | O=C(N[N-][CH+]c1cc([N+](=O)[O-])ccc1N1CCCC1)c1ccccn1 [MLS000684285] | 70.5
26 | Cc1cc(=O)n(-c2ccc(C(=O)O)c(N)c2)[nH]1 [MLS000690508] | 38.3
27 | CC1=C(C#N)C(=O)N(C)C(=O)C1=CNNc1ccc(F)cc1 [MLS000702698] | > 300
28 | O=C(c1ccccc1)[C@@H]1c2c(c(O)n(-c3ccc(F)cc3)c2O)C2CCCN21 (stereo partly specified) [MLS000769629] | 40.9
29 | O=C(O)c1ccccc1N=NCc1c(Sc2nnnn2-c2ccccc2)nc2ccccn2c1=O [MLS000775267] | 116
30 | CCCCOC(=O)c1ccc(NN=C2C(=O)NC(=O)C(C#N)=C2C)cc1 [MLS000778379] | > 300
31 | COc1cc(C2C3=C(CC(C)(C)CC3=O)OC(=N)C2C#N)ccc1OCCN1CCOCC1 (stereo unspecified) [MLS000779948] | > 300
32 | C=c1c(C(=O)OC)c(O)c(=Cc2ccco2)n1-c1ccccc1 [MLS000780287] | 5.06
33 | COc1ccc(C(C)N=Nc2nc3ccccc3nc2C)cc1OC (stereo unspecified) [MLS001029936] | 66.5
34 | CC1(C)c2[nH]c3ccccc3c2Cc2c(O)n(-c3ccc(F)cc3F)c(=O)n21 [MLS001065879] | 46.8
35 | O=C(/C=C/c1ccco1)NCC(=O)NNC1=c2ccccc2=NC1=O [MLS001075666] | 5.49
36 | O=C1N=C(O)C(C2=c3cc([N+](=O)[O-])ccc3=NC2=O)S1 (stereo unspecified) [MLS001163276] | 21.5
37 | CCOC(=O)C1=C(C)N=c2sc(=Cc3ccc(OCC(=O)O)cc3)c(=O)n2C1c1ccc(OC)cc1OC (stereo unspecified) [MLS001179101] | 60.9
38 | N#CC1C(=N)OC2=C(C(=O)CCC2)C1c1cc2c(cc1Cl)OCO2 (stereo unspecified) [MLS001183950] | > 300
39 | Cc1cc(=O)[nH]c(N=NCc2ccc(O)c(O)c2)n1 [MLS001194906] | 125
40 | COc1ccc(N2C(=O)NC(=O)C(=Cc3cn(C)c4ccccc34)C2=O)cc1 [MLS001196573] | 1.15
41 | COc1ccc(OC)c(N2C(=O)C(=Cc3ccco3)C(=O)NC2=S)c1 [MLS001197216] | 10.8
42 | Cc1ccccc1NN=C1C(=O)N(C)c2ccccc21 [MLS001203477] | > 300

Row | SMILES | EC50 [µM]
43 | COc1ccc(N2C(=O)C(=Cc3ccco3)C(=O)NC2=S)cc1 [MLS001204507] | 3.9
44 | CCOc1ccc(N2C(=O)C(=Cc3ccco3)C(=O)NC2=S)cc1 [MLS001205052] | 178
45 | O=[N+]([O-])c1cc/c(=N\c2ccccc2O)c2no[nH]c1-2 [MLS001206694] | 28.2
46 | COc1cc2c(cc1C1C3=C(CC(C)(C)CC3=O)OC(=N)C1C#N)OCO2 (stereo unspecified) [MLS001208406] | > 300
47 | O=C1C([N+](=O)[O-])=CC(Cl)=CC1/C=N/NC(=O)C(O)(c1ccccc1)c1ccccc1 (stereo unspecified) [N''''-[(E)-(3-chloro-5-nitro-6-oxocyclohexa-2,4-dien-1-ylidene)methyl]-2-hydroxy-2,2-diphenylacetohydrazide] | 40.2
48 | O=C(NN=Cc1c(O)n(-c2ccccc2)c(=S)[nH]c1=O)c1ccc(O)cc1 [N'-[(1Z)-(4,6-dioxo-1-phenyl-2-thioxohexahydropyrimidin-5-yl)methylene]-4-hydroxybenzohydrazide] | 63.7
49 | O=C(N/N=C/C1C=C(Cl)C=C([N+](=O)[O-])C1=O)c1ccc2c(c1)OCO2 (stereo unspecified) [N'-[(E)-(3-chloranyl-5-nitro-6-oxidanylidene-cyclohexa-2,4-dien-1-ylidene)methyl]-1,3-benzodioxole-5-carbohydrazide] | 241
50 | COc1cccc(C=NNC(=O)c2ccc(=O)[nH]n2)c1O [N'-[(E)-(5-methoxy-6-oxocyclohexa-2,4-dien-1-ylidene)methyl]-6-oxo-1H-pyridazine-3-carbohydrazide] | 12.6
51 | O=C1NC(=O)N(CCc2ccc(F)cc2)C(=O)C1=CNNC(=O)c1ccccc1 [N'-[(E)-[1-[2-(4-fluorophenyl)ethyl]-2,4,6-trioxo-1,3-diazinan-5-ylidene]methyl]benzohydrazide] | > 300
52 | O=C1NC(=O)N(CCc2ccccc2)C(=O)C1=CNNC(=O)c1ccncc1 [N'-[(E)-[2,4,6-trioxo-1-(2-phenylethyl)-1,3-diazinan-5-ylidene]methyl]-4-pyridinecarbohydrazide] | > 300
53 | C/N=c1\ccc2nc3ccccc3n(C)c-2c1 [N,10-dimethyl-2-phenazin-10-iumamine;perchlorate] | 14.8
54 | O=[N+]([O-])c1ccc(/N=N/c2ncc[nH]2)cc1 [N-(imidazol-2-ylideneamino)-4-nitroaniline] | 20.7
55 | COc1ccc(N=C(C(=C(Cl)C(Cl)Cl)[N+](=O)[O-])n2nnc3ccccc32)cc1 [N-[(1E)-1-(1-benzotriazolyl)-3,4,4-trichloro-2-nitrobuta-1,3-dienyl]-4-methoxyaniline] | 49.1
56 | CN(C)c1ccc(N=Cc2nc(-c3ccccc3)oc2O)cc1 [SMR000009577] | 5.22
57 | COc1cccc(C2C3=C(CC(c4ccco4)CC3=O)OC(=N)C2C#N)c1OCc1ccc(F)cc1 (stereo unspecified) [SMR000021029] | > 300
58 | CCN(CC)c1ccc(C=NC(C#N)C(=N)C#N)cc1 (stereo unspecified) [SMR000023871] | 114
59 | COc1ccc(C2CC(c3ccc(Br)s3)=Nc3ncnn32)cc1OC (stereo unspecified) [SMR000032927] | 6.36
60 | Cc1ccc(C2C3CN(C(C)C)CCC3=C(C#N)C(=N)C2(C#N)C#N)cc1 (stereo unspecified) [SMR000034220] | 8.29
61 | Cc1cc(O)c(C(C)C)cc1Nc1csc(=O)[nH]1 [SMR000034713] | 34.6
